Assay results reported in ChEMBL document CHEMBL1150952, “Isolation, identification, and biological activity of isopersin, a new compound from avocado idioblast oil cells” (1998).

How the values were obtained:
Spodoptera exigua [1] = test: Insecticidal activity against early instar Spodoptera exigua assessed as mortality at 500 ug/g after 7 days by artificial diet bioassay relative to control; type: functional
Spodoptera exigua [2] = test: Insecticidal activity against early instar Spodoptera exigua assessed as larval weight at 500 ug/g after 7 days by artificial diet bioassay; type: functional

Row | SMILES | Activity (Spodoptera exigua [1]) | Activity (Spodoptera exigua [2])
1 | CCCCC/C=C\C/C=C\CCCCCCCC(=O)CC(CO)OC(C)=O (stereo not drawn) [ISOPERSIN] | 12% | 26.45 mg
2 | CCCCC/C=C\C/C=C\CCCCCCCC(=O)C[C@@H](O)COC(C)=O | 80% | –
